Experiment [1] concerns the target T1, human recombinant serotonin 5-HT2A receptor (Homo sapiens, UniProt P28223).
T1 construct: purchased PerkinElmer Life and Analytical Sciences, USA; host or cells: CHO-K1
Briefly: Binding affinity for serotonin 5-HT2A receptor ([3H]Ketanserin). The note with it: CHO-K1 expressed receptor, 1 nM [3H]Ketanserin. How it is done:
Receptor binding affinities of the compounds for serotonin receptors were measured by the method described in the literature [Park W K et al., Pharmacol Biochem Behav. 2005, 82(2), 361-372].
For serotonin 5-HT2A binding, an aliquot of human recombinant serotonin 5-HT2A receptor (PerkinElmer Life and Analytical Sciences, USA) expressed in CHO-K1 cells (5 ug/well) and 1 nM [^3H]Ketanserin (PerkinElmer) were used in the presence of mianserin (20 uM) as nonspecific. The reaction mixture was incubated for 60 min at 27 using 50 mM Tris-HCl (pH 7.4) buffer containing 4 mM CaCl2 and 0.1% ascorbic acid, and harvested through filtermate A glass fiber filter (Wallac, Finland) presoaked in 0.5% polyethyleneimine (PEI) by microbeta filtermate-96 harvester (PerkinElmer) to terminate the reaction, and then washed with ice cold 50 mM Tris-HCl buffer solution (pH 7.4). The filter was then covered with MeltiLex, sealed in a sample bag, dried in an oven. The radioactivity retained in the filter was finally counted using MicroBeta Plus (Wallac).
(§1) The binding affinity (IC50) of a compound for the receptor was calculated by computerized nonlinear regression analysis (GraphPad Prism Program, San Diego, USA) using 7-8 varied concentrations of the compound run in duplicate tubes.

In experiment [2] the target is T2, human serotonin transporter (Homo sapiens, UniProt P31645).
T2 construct: purchased PerkinElmer; host or cells: HEK-293
Kind of experiment: Binding affinity for serotonin transporter ([3H]Imipramine). The note with it: HEK-293 membranes, 2 nM [3H]Imipramine. On the procedure: For serotonin transporter binding assays, a reaction mixture with a final volume of 0.25 ml was prepared by mixing a test compound, human serotonin transporter membrane expressed in HEK-293 cells (PerkinElmer, 5 ug/well), [^3H]Imipramine (PerkinElmer, 2 nM) and 50 mM Tris-HCl (pH 7.4) buffer containing 120 mM NaCl and 5 mM KCl. The reaction mixture was incubated for 30 min at 27, and harvested through filtermate. A glass fiber filter presoaked in 0.5% PEI with ice cold 50 mM Tris-HCl buffer (pH 7.4) containing 0.9% NaCl.

The target of experiment [3] is T3, human recombinant 5-HT2C receptor (Homo sapiens, UniProt P28335).
T3 construct: purchased PerkinElmer
T3 sequence (P28335 33-458): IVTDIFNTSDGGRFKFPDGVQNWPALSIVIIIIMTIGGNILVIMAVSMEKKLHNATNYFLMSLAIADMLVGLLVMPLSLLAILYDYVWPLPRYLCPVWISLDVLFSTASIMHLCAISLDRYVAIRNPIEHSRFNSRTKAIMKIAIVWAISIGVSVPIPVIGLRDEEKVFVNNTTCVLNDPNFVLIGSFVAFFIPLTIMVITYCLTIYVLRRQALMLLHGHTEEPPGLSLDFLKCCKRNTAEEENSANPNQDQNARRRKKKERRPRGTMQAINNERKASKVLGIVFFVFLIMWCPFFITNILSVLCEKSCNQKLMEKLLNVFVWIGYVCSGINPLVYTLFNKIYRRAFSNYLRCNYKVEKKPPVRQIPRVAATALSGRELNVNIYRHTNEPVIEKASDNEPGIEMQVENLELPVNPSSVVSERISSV
Briefly: Binding affinity for serotonin 5-HT2C receptor ([3H]Mesulergine). The note with it: CHO-K1 membranes, 1.3 nM [3H]Mesulergine. How it is done: Receptor binding affinities of the compounds for serotonin receptors were measured by the method described in the literature [Park W K et al., Pharmacol Biochem Behav.
as §1
Nonspecific binding was determined using 100 uM mianserin. The incubations were performed for 60 min at 27, and these were terminated by rapid filtration through filtermate. A glass fiber filter presoaked in 0.5% PEI.

The record followed here is US8895558B2, “Arylpiperazine-containing pyrrole 3-carboxamide derivatives for treating depressive disorders” (Green Cross Corporation, priority 2008, dated 2014).

Where a name gives a salt, the structure may show the parent alone.

T1 sequence (P28223 whole entry): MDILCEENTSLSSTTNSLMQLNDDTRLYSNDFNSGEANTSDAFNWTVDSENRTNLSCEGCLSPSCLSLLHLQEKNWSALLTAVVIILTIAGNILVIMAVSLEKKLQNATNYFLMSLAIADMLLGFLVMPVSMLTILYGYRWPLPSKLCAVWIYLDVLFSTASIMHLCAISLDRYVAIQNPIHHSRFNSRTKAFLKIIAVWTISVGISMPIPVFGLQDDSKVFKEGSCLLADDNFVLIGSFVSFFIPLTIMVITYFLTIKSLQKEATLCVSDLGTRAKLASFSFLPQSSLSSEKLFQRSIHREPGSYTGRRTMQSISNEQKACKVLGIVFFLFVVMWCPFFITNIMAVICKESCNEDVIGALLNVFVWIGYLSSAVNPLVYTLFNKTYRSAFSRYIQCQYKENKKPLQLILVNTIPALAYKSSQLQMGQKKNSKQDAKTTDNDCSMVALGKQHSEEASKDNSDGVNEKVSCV
T2 sequence (P31645 whole entry): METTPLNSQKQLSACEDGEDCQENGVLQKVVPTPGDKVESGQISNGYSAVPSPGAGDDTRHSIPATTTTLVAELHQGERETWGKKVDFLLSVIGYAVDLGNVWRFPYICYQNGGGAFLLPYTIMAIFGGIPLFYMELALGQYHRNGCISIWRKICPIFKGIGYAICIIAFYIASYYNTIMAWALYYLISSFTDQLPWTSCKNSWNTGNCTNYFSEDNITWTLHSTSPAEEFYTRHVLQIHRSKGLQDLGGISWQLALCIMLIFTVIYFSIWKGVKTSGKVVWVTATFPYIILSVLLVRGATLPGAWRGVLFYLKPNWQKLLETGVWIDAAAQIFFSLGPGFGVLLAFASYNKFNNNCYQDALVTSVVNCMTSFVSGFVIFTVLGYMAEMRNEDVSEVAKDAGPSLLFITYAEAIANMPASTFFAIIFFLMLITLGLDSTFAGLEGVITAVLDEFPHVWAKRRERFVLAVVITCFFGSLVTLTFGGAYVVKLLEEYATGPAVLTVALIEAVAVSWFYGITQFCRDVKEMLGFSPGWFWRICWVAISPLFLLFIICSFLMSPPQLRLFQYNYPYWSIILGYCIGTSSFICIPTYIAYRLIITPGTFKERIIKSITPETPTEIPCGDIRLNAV

Take `CCCn1c(-c2ccncc2)cc(C(=O)NCCCN2CCN(c3cccc(Cl)c3Cl)CC2)c1C` [Example 107, N-(3-(4-(2,3-dichlorophenyl)piperazin-1-yl)propyl)-2-methyl-1-propyl-5-(pyridin-4-yl)-1H-pyrrole-3-carboxamide]: the results for the IC50 in experiment [1], in experiment [2] and in experiment [3] were 0.034 µM, 0.078 µM and 0.42 µM, respectively.

As to `CCn1c(-c2ccccc2)cc(C(=O)NCCN2CCN(c3cccc(Cl)c3Cl)CC2)c1C` [Example 49, N-(2-(4-(2,3-dichlorophenyl)piperazin-1-yl)ethyl)-1-ethyl-2-methyl-5-phenyl-1H-pyrrole-3-carboxamide hydrochloride], the results for the IC50 in experiment [1], in experiment [2] and in experiment [3] were 0.1 µM, 0.085 µM and 0.096 µM, respectively.

For the compound `CCCCCCn1c(-c2ccccc2)cc(C(=O)NCCCN2CCN(c3cccc(Cl)c3Cl)CC2)c1C` [Example 72, N-(3-(4-(2,3-dichlorophenyl)piperazin-1-yl)propyl)-1-hexyl-2-methyl-5-phenyl-1H-pyrrole-3-carboxamide hydrochloride], the half-inhibitory concentration (IC50) (commonly the midpoint of a concentration-inhibition curve) in experiment [1] was found to be 0.3 µM; in experiment [2] it was 1.19 µM; in experiment [3], 0.068 µM.

Turning to `C=CCCc1cc(C(=O)NCCCN2CCN(c3cccc(Cl)c3Cl)CC2)c(C)n1C` [Example 136, 5-(but-3-enyl)-N-(3-(4-(2,3-dichlorophenyl)piperazin-1-yl)propyl)-1,2-dimethyl-1H-pyrrole-3-carboxamide], the half-maximal inhibitory concentration (IC50) in experiment [1] turned out to be 0.108 µM; in experiment [2], 0.347 µM; in experiment [3], 0.173 µM.

In the case of `CCn1c(-c2ccccc2)cc(C(=O)NCCCCN2CCN(c3cccc(Cl)c3Cl)CC2)c1C` [Example 43, N-(4-(4-(2,3-dichlorophenyl)piperazin-1-yl)butyl)-1-ethyl-2-methyl-5-phenyl-1H-pyrrole-3-carboxamide hydrochloride], the results for the IC50 in experiment [1], in experiment [2] and in experiment [3] were 0.028 µM, 0.064 µM and 0.028 µM, respectively.

As for `Cc1cc(C(=O)NCCCN2CCN(c3cccc(Cl)c3Cl)CC2)c(C)n1-c1ccccc1` [Example 170, N-(3-(4-(2,3-dichlorophenyl)piperazin-1-yl)propyl)-2,5-dimethyl-1-phenyl-1H-pyrrole-3-carboxamide], the IC50 in experiment [1] came out at 0.132 µM; in experiment [2], 0.02 µM; in experiment [3] it was 0.098 µM.

Regarding `Cc1c(C(=O)NCCCN2CCN(c3cccc(Cl)c3Cl)CC2)cc(-c2ccccc2)n1CC1CCCCC1` [Example 22, 1-(cyclohexylmethyl)-N-(3-(4-(2,3-dichlorophenyl)piperazin-1-yl)propyl)-2-methyl-5-phenyl-1H-pyrrole-3-carboxamide], the IC50 is 4.38 µM in experiment [1], 0.412 µM in experiment [2] and 1.03 µM in experiment [3].

With `Cc1c(C(=O)NCCCN2CCN(c3cc(Cl)ccc3Cl)CC2)cc(-c2ccccc2)n1C` [Example 156, N-(3-(4-(2,5-Ddichlorophenyl)piperazin-1-yl)propyl)-1,2-dimethyl-5-phenyl-1H-pyrrole-3-carboxamide], the IC50 in experiment [1] is 0.585 µM; in experiment [2] it was 0.134 µM; in experiment [3] it was 0.806 µM.

`Cc1c(C(=O)NCCCN2CCN(c3cccc(Cl)c3)CC2)cc(-c2ccccc2)n1-c1ccc(F)cc1` [Example 14, N-(3-(4-(3-chlorophenyl)piperazin-1-yl)propyl)-1-(4-fluorophenyl)-2-methyl-5-phenyl-1H-pyrrole-3-carboxamide]: the half-maximal inhibitory concentration (IC50) was 0.0229 µM in experiment [1], 0.0802 µM in experiment [2] and 0.443 µM in experiment [3].

Turning to `CCCn1c(-c2ccccc2)cc(C(=O)N(C)CCCN2CCN(c3cccc(Cl)c3Cl)CC2)c1C` [Example 31, N-(3-(4-(2,3-dichlorophenyl)piperazin-1-yl)propyl)-N,2-dimethyl-5-phenyl-1-propyl-1H-pyrrole-3-carboxamide hydrochloride], the concentration for half-maximal inhibition (IC50) in experiment [1] was found to be 0.0332 µM; in experiment [2] it was 0.102 µM; in experiment [3], 0.0207 µM.

As to `Cc1cccc(N2CCN(CCCNC(=O)c3cc(-c4ccccc4)n(-c4ccc(F)cc4)c3C)CC2)c1C` [Example 15, N-(3-(4-(2,3-dimethylphenyl)piperazin-1-yl)propyl)-1-(4-fluorophenyl)-2-methyl-5-phenyl-1H-pyrrole-3-carboxamide], the values for the IC50 in experiment [1], in experiment [2] and in experiment [3] were 0.0069 µM, 0.0536 µM and 0.162 µM, respectively.

`Cc1c(C(=O)NCCCN2CCN(c3ccc(Cl)cc3Cl)CC2)cc(-c2ccccc2)n1C` [Example 154, N-(3-(4-(2,4-Dichlorophenyl)piperazin-1-yl)propyl)-1,2-dimethyl-5-phenyl-1H-pyrrole-3-carboxamide hydrochloride]: the IC50 in experiment [1] turned out to be 0.213 µM; in experiment [2], 0.023 µM; in experiment [3], 0.349 µM.

For `Cc1[nH]c(-c2ccccc2)c(C)c1C(=O)NCCCCN1CCN(c2cccc(Cl)c2Cl)CC1` [Example 78, N-(4-(4-(2,3-dichlorophenyl)piperazin-1-yl)butyl)-2,4-dimethyl-5-phenyl-1H-pyrrole-3-carboxamide hydrochloride], the results for the 50% inhibitory concentration (IC50) in experiment [1], in experiment [2] and in experiment [3] were 0.019 µM, 0.074 µM and 0.01 µM, respectively.

`Cc1cccc(N2CCN(CCCNC(=O)c3cc(-c4ccccc4)n(C)c3C)CC2)c1C` [Example 3, N-(3-(4-(2,3-dimethylphenyl)piperazin-1-yl)propyl)-1,2-dimethyl-5-phenyl-1H-pyrrole-3-carboxamide]: the results for the IC50 in experiment [1], in experiment [2] and in experiment [3] were 0.057 µM, 0.0118 µM and 0.133 µM, respectively.

In the case of `Cc1[nH]c(C(C)(C)C)cc1C(=O)NCCCN1CCN(c2cccc(Cl)c2Cl)CC1` [Example 127, 5-tert-butyl-N-(3-(4-(2,3-dichlorophenyl)piperazin-1-yl)propyl)-2-methyl-1H-pyrrole-3-carboxamide hydrochloride], the results for the IC50 in experiment [1], in experiment [2] and in experiment [3] were 0.107 µM, 0.86 µM and 1.39 µM, respectively.

Take `Cc1c(C(=O)NCCCN2CCN(c3cccc(Cl)c3)CC2)cc(-c2ccccc2)n1CC1CCCCC1` [Example 20, N-(3-(4-(3-chlorophenyl)piperazin-1-yl)propyl)-1-(cyclohexylmethyl)-2-methyl-5-phenyl-1H-pyrrole-3-carboxamide]: the IC50 in experiment [1] amounted to 1.07 µM; in experiment [2], 0.213 µM; in experiment [3] it was 0.611 µM.

Consider `Cc1c(C(=O)NCCCN2CCN(c3cccc(Cl)c3Cl)CC2)cc(C(C)(C)C)n1C` [Example 128, 5-tert-butyl-N-(3-(4-(2,3-dichlorophenyl)piperazin-1-yl)propyl)-1,2-dimethyl-1H-pyrrole-3-carboxamide], for which the half-maximal inhibitory concentration (IC50) in experiment [1] was determined as 0.163 µM; in experiment [2] it was 0.375 µM; in experiment [3] it was 1.02 µM.

`Cc1cccc(N2CCN(CCCNC(=O)c3cc(-c4ccc(Cl)cc4)n(C)c3C)CC2)c1C` [Example 61, 5-(4-chlorophenyl)-N-(3-(4-(2,3-dimethylphenyl)piperazin-1-yl)propyl)-1,2-dimethyl-1H-pyrrole-3-carboxamide hydrochloride]: the values for the half-maximal inhibitory concentration (IC50) in experiment [1], in experiment [2] and in experiment [3] were 0.213 µM, 0.129 µM and 0.129 µM, respectively.

Take `Cc1c(C(=O)NCCCN2CCN(c3cccc(Cl)c3Cl)CC2)cc(-c2cccnc2)n1C` [Example 100, N-(3-(4-(2,3-dichlorophenyl)piperazin-1-yl)propyl)-1,2-dimethyl-5-(pyridin-3-yl)-1H-pyrrole-3-carboxamide]: the IC50 in experiment [1] was found to be 0.049 µM; in experiment [2] it was 0.092 µM; in experiment [3], 0.209 µM.
